{"source": "patent EP0086092A2", "about": "“Antifungal compositions” (priority 1982, dated 1983)", "experiment_in_all_cases": "disc diffusion, zone of inhibition on seeded agar plates", "assay_type_in_all_cases": "cell-based", "key": {"Candida albicans B 3153A": {"test_system": "Candida albicans B 3153A", "conditions": "Table IV-a; aculeacin A 0.40 µg, oleic acid 0 µg; 16-18 h, 28-37°C", "method": "(§1) The antifungal activity of aculeacin A and the compositions of aculeacin A and fatty acids was measured by disc diffusion. Potentiation of antifungal activity was examined by three different methods employing: (1) a single concentration of aculeacin A and a single concentration of known fatty acids; '(2) various concentrations of aculeacin A with a single concentration of individual fatty acids; and (3) various concentrations of fatty acids with a single concentration of aculeacin A. The antifungal activities of aculeacin A and the fatty acids were separately checked as controls.\n(§2) The antifungal effects of compositions containing a single amount of aculeacin A while varying the amounts. of oleic acid as the sodium salt were determined by utilizing seeded plates of Candida albicans strains B 311, BC 759 and B 3153A and measuring the zone of inhibition after 16-18 hours at 28-37°C. This test was also performed with linoleic acid and linolenic acid.\n(§3) The seeded plates of Candida albicans strains B 311, BC 759, and B 3153A were prepared by inoculating 50 ml of trypticase soy broth (BBL) with one ml of the preserved frozen culture and incubating the inoculum at 37°C for 7 hours on a rotary shaker. Two milliliters of this culture were used to inoculate one liter of Sabouarud dextrose agar (Difco) at 50°C and 15 milliliters of the resultant medium poured into 150 mm petri-dishes."}, "Candida albicans BC 759": {"test_system": "Candida albicans BC 759", "conditions": "Table IV-a; aculeacin A 0.40 µg, oleic acid 0 µg; 16-18 h, 28-37°C", "method": "as §1, §2, §3"}, "Candida albicans B 311": {"test_system": "Candida albicans B 311", "conditions": "16-18 h; for Zone Size / Zone Size B 311: 28-37°C; for Zone Size Sabouarud Agar / Zone Size YNB agar: Table II, 37°C; for Zone Size YNB agar: lysine", "method": "The antifungal activity of aculeacin A and the compositions of aculeacin A and fatty acids was measured by disc diffusion.\nThe effects of a number of fatty acids on the antifungal activity of aculeacin A were determined by utilizing seeded plates of Candida albicans B 311 in yeast nitrogen base (YNB) agar (Difco) with glucose as the carbon source. A composition containing one unit by weight of aculeacin A and 5 units of fatty acid or the sodium salt thereof was spotted on the seeded plates and the size of the zone of inhibition after 16-18 hours incubation at 28-37 °C was measured.\nAdditional fatty acids were tested to determine , if they increased the intrinsic activity of aculeacin A against C. albicans B 311 utilizing seeded plates of YNB agar (Difco) with lysine as the carbon source and seeded plates of Sabouarud dextrose agar (Difco). Compositions containg one µg of aculeacin A and various amounts of the fatty acid was spotted on the seeded plates and the size of the zone of inhibition after 16-18 hours incubation at 37 °C was measured.\nThe antifungal effects of compositions containing a single amount of oleic acid as the sodium salt while varying the amounts of aculeacin A were determined by utilizing seeded plates of Candida albicans B 311 in Sabouarud dextrose agar and measuring the zone of inhibition after 16-18 hours incubation at 28-37°C.\nas §2, §3"}, "[1]": {"conditions": "Table I, YNB agar, glucose as carbon source, composition of 1 unit by weight aculeacin A + 5 units fatty acid"}, "[2]": {"conditions": "Sabouarud dextrose agar, aculeacin A 0 µg, fatty acid 500 µg alone"}, "[3]": {"conditions": "Sabouarud dextrose agar, aculeacin A 0 µg, fatty acid 1000 µg alone"}, "[4]": {"conditions": "Sabouarud dextrose agar, composition of aculeacin A 1 µg + fatty acid 500 µg"}, "[5]": {"conditions": "Sabouarud dextrose agar, composition of aculeacin A 1 µg + fatty acid 1000 µg"}, "[6]": {"conditions": "YNB agar, aculeacin A 0 µg, fatty acid 500 µg alone"}, "[7]": {"conditions": "YNB agar, aculeacin A 0 µg, fatty acid 1000 µg alone"}, "[8]": {"conditions": "YNB agar, composition of aculeacin A 1 µg + fatty acid 500 µg"}, "[9]": {"conditions": "YNB agar, composition of aculeacin A 1 µg + fatty acid 1000 µg"}, "[10]": {"conditions": "Sabouarud dextrose agar, aculeacin A 0 µg, fatty acid 250 µg alone"}, "[11]": {"conditions": "Sabouarud dextrose agar, composition of aculeacin A 1 µg + fatty acid 250 µg"}, "[12]": {"conditions": "YNB agar, aculeacin A 0 µg, fatty acid 250 µg alone"}, "[13]": {"conditions": "YNB agar, composition of aculeacin A 1 µg + fatty acid 250 µg"}}, "note": "Several values for one entry are separate records, joined by “and”; a condition that tells them apart may be missing. Identical values can stand only once. Marks after values point to notes of the source that are not given here.", "data": [{"molecule": "aculeacin A [reference compound]", "values": [{"measurement": "Zone Size B 3153-A", "setting": "Candida albicans B 3153A", "result": 12, "unit": "mm"}, {"measurement": "Zone Size BC 759", "setting": "Candida albicans BC 759", "result": 13, "unit": "mm"}, {"measurement": "Zone Size", "setting": "Candida albicans B 311; Table I, YNB agar, glucose as carbon source, aculeacin A alone, no fatty acid", "result": 15, "unit": "mm"}, {"measurement": "Zone Size Sabouarud Agar", "setting": "Candida albicans B 311; Sabouarud dextrose agar, aculeacin A 1 µg, no fatty acid", "result": "13 mm and 15 mm"}, {"measurement": "Zone Size YNB agar", "setting": "Candida albicans B 311; YNB agar, aculeacin A 1 µg, no fatty acid", "result": "15 mm and 16 mm"}, {"measurement": "Zone Size", "setting": "Candida albicans B 311; Table III, Sabouarud dextrose agar, aculeacin A 0.312 µg, oleic acid 0 µg", "result": "trace"}, {"measurement": "Zone Size", "setting": "Candida albicans B 311; Table III, Sabouarud dextrose agar, aculeacin A 0.625 µg, oleic acid 0 µg", "result": 10, "unit": "mm"}, {"measurement": "Zone Size", "setting": "Candida albicans B 311; Table III, Sabouarud dextrose agar, aculeacin A 1.25 µg, oleic acid 0 µg", "result": "14-16 mm"}, {"measurement": "Zone Size", "setting": "Candida albicans B 311; Table III, Sabouarud dextrose agar, aculeacin A 2.5 µg, oleic acid 0 µg", "result": 19, "unit": "mm"}, {"measurement": "Zone Size B 311", "setting": "Candida albicans B 311; Table IV-a, aculeacin A 0.40 µg, oleic acid 0 µg", "result": 10, "unit": "mm"}, {"measurement": "Zone Size B 311", "setting": "Candida albicans B 311; Tables IV-b, IV-c, aculeacin A 0.625 µg, fatty acid 0 µg", "result": 16, "unit": "mm"}]}, {"molecule": "CCCCCCCCCCCCCCCCCC(=O)O", "note": "[Stearic Acid]", "values": [{"measurement": "Zone Size", "setting": "Candida albicans B 311; [1]", "result": 15, "unit": "mm"}]}, {"molecule": "CCCCCC/C=C/CCCCCCCC(=O)O", "note": "[Palmitelaidic Acid]", "values": [{"measurement": "Zone Size Sabouarud Agar", "setting": "Candida albicans B 311; [2]", "result": 0, "unit": "mm"}, {"measurement": "Zone Size Sabouarud Agar", "setting": "Candida albicans B 311; [3]", "result": 0, "unit": "mm"}, {"measurement": "Zone Size Sabouarud Agar", "setting": "Candida albicans B 311; Sabouarud dextrose agar, aculeacin A 0 µg, fatty acid 2000 µg alone", "result": 0, "unit": "mm"}, {"measurement": "Zone Size Sabouarud Agar", "setting": "Candida albicans B 311; [4]", "result": 30, "unit": "mm"}, {"measurement": "Zone Size Sabouarud Agar", "setting": "Candida albicans B 311; [5]", "result": 32, "unit": "mm"}, {"measurement": "Zone Size Sabouarud Agar", "setting": "Candida albicans B 311; Sabouarud dextrose agar, composition of aculeacin A 1 µg + fatty acid 2000 µg", "result": 25, "unit": "mm"}, {"measurement": "Zone Size YNB agar", "setting": "Candida albicans B 311; [6]", "result": 0, "unit": "mm"}, {"measurement": "Zone Size YNB agar", "setting": "Candida albicans B 311; [7]", "result": 0, "unit": "mm"}, {"measurement": "Zone Size YNB agar", "setting": "Candida albicans B 311; YNB agar, aculeacin A 0 µg, fatty acid 2000 µg alone", "result": 0, "unit": "mm"}, {"measurement": "Zone Size YNB agar", "setting": "Candida albicans B 311; [8]", "result": 20, "unit": "mm"}, {"measurement": "Zone Size YNB agar", "setting": "Candida albicans B 311; [9]", "result": 20, "unit": "mm"}, {"measurement": "Zone Size YNB agar", "setting": "Candida albicans B 311; YNB agar, composition of aculeacin A 1 µg + fatty acid 2000 µg", "result": 22, "unit": "mm"}]}, {"molecule": "CCCCC/C=C\\C/C=C\\C/C=C\\C/C=C\\CCCC(=O)O", "note": "[Arachidonic Acid]", "values": [{"measurement": "Zone Size Sabouarud Agar", "setting": "Candida albicans B 311; [10]", "result": 0, "unit": "mm"}, {"measurement": "Zone Size Sabouarud Agar", "setting": "Candida albicans B 311; [2]", "result": 0, "unit": "mm"}, {"measurement": "Zone Size Sabouarud Agar", "setting": "Candida albicans B 311; [3]", "result": 0, "unit": "mm"}, {"measurement": "Zone Size Sabouarud Agar", "setting": "Candida albicans B 311; [11]", "result": "20* mm"}, {"measurement": "Zone Size Sabouarud Agar", "setting": "Candida albicans B 311; [4]", "result": "20* mm"}, {"measurement": "Zone Size Sabouarud Agar", "setting": "Candida albicans B 311; [5]", "result": "20* mm"}, {"measurement": "Zone Size YNB agar", "setting": "Candida albicans B 311; [12]", "result": 0, "unit": "mm"}, {"measurement": "Zone Size YNB agar", "setting": "Candida albicans B 311; [6]", "result": 0, "unit": "mm"}, {"measurement": "Zone Size YNB agar", "setting": "Candida albicans B 311; [7]", "result": 0, "unit": "mm"}, {"measurement": "Zone Size YNB agar", "setting": "Candida albicans B 311; [13]", "result": 20, "unit": "mm"}, {"measurement": "Zone Size YNB agar", "setting": "Candida albicans B 311; [8]", "result": 20, "unit": "mm"}, {"measurement": "Zone Size YNB agar", "setting": "Candida albicans B 311; [9]", "result": 26, "unit": "mm"}]}, {"molecule": "CCCCCCCCCCCCCCCC(=O)O", "note": "[Palmitic Acid]", "values": [{"measurement": "Zone Size", "setting": "Candida albicans B 311; [1]", "result": 15, "unit": "mm"}]}, {"molecule": "CCCCCC/C=C\\CCCCCCCC(=O)O", "note": "[Palmitoleic Acid]", "values": [{"measurement": "Zone Size", "setting": "Candida albicans B 311; [1]", "result": 26, "unit": "mm"}]}, {"molecule": "CCCCCCCC/C=C/CCCCCCCC(=O)O", "note": "[Eladic Acid]", "values": [{"measurement": "Zone Size Sabouarud Agar", "setting": "Candida albicans B 311; [10]", "result": 0, "unit": "mm"}, {"measurement": "Zone Size Sabouarud Agar", "setting": "Candida albicans B 311; [2]", "result": 0, "unit": "mm"}, {"measurement": "Zone Size Sabouarud Agar", "setting": "Candida albicans B 311; [3]", "result": 0, "unit": "mm"}, {"measurement": "Zone Size Sabouarud Agar", "setting": "Candida albicans B 311; [11]", "result": 18, "unit": "mm"}, {"measurement": "Zone Size Sabouarud Agar", "setting": "Candida albicans B 311; [4]", "result": 15, "unit": "mm"}, {"measurement": "Zone Size Sabouarud Agar", "setting": "Candida albicans B 311; [5]", "result": 13, "unit": "mm"}, {"measurement": "Zone Size YNB agar", "setting": "Candida albicans B 311; [12]", "result": 0, "unit": "mm"}, {"measurement": "Zone Size YNB agar", "setting": "Candida albicans B 311; [6]", "result": 0, "unit": "mm"}, {"measurement": "Zone Size YNB agar", "setting": "Candida albicans B 311; [7]", "result": 0, "unit": "mm"}, {"measurement": "Zone Size YNB agar", "setting": "Candida albicans B 311; [13]", "result": 13, "unit": "mm"}, {"measurement": "Zone Size YNB agar", "setting": "Candida albicans B 311; [8]", "result": 13, "unit": "mm"}, {"measurement": "Zone Size YNB agar", "setting": "Candida albicans B 311; [9]", "result": 13, "unit": "mm"}]}, {"molecule": "CCCCCCCC/C=C\\CCCCCCCCCCCC(=O)O", "note": "[Erucic Acid]", "values": [{"measurement": "Zone Size Sabouarud Agar", "setting": "Candida albicans B 311; [10]", "result": 0, "unit": "mm"}, {"measurement": "Zone Size Sabouarud Agar", "setting": "Candida albicans B 311; [2]", "result": 0, "unit": "mm"}, {"measurement": "Zone Size Sabouarud Agar", "setting": "Candida albicans B 311; [3]", "result": 0, "unit": "mm"}, {"measurement": "Zone Size Sabouarud Agar", "setting": "Candida albicans B 311; [4]", "result": 17, "unit": "mm"}, {"measurement": "Zone Size Sabouarud Agar", "setting": "Candida albicans B 311; [5]", "result": "Trace"}, {"measurement": "Zone Size YNB agar", "setting": "Candida albicans B 311; [12]", "result": 0, "unit": "mm"}, {"measurement": "Zone Size YNB agar", "setting": "Candida albicans B 311; [6]", "result": 0, "unit": "mm"}, {"measurement": "Zone Size YNB agar", "setting": "Candida albicans B 311; [7]", "result": 0, "unit": "mm"}, {"measurement": "Zone Size YNB agar", "setting": "Candida albicans B 311; [8]", "result": "15 mm and 17 mm"}, {"measurement": "Zone Size YNB agar", "setting": "Candida albicans B 311; [9]", "result": 15, "unit": "mm"}]}]}
